In patent US12459953B2, “TREM2 modulators” (Muna Therapeutics ApS, priority 2024, dated 2025):

Molecular target: T1, Human TREM2 (Homo sapiens, UniProt Q9NZC2)
T1 construct: expressed in transfected cells
Experiment: Human TREM2 activity by cellular phosphorylation of Syk (AlphaLISA SureFire Ultra p-SYK) in HEK293/DAP12+TREM2 stable cell line
Format: cell-based
Details: HEK293/DAP12+TREM2 cells; for Emax: maximal response relative to the maximal response of the reference agonist (8-(4-chloro-2-fluorophenyl)-2,3-dimethyl-6-[(2S)-2-(1-methyl-1H-pyrazol-4-yl)morpholin-4-yl]-3H,4H-[1,3]diazino[5,4-d]pyrimidin-4-one); for EC50: phospho-Syk AlphaScreen signal, 30 min incubation, concentration giving 50% of maximal response
Source text: Human TREM2, in vitro Measurement of Triggering Receptor Expressed on Myeloid Cells 2 activity using cellular phosphorylation of Spleen Tyrosine Kinase (“Syk”) Assay
HEK-293 cells were co-transfected with separate plasmids encoding TREM2 and DAP12 to generate a stable cell line. After antibiotic selection, functional clone pool analysis and two successive limiting dilutions, the final clone
“HEK293/DAP12+TREM2” underwent a qPCR analysis and a pharmacological validation.
TREM2 signaling through DAP12 was monitored in the HEK293/DAP12+TREM2 stable cell line by measuring the phosphorylation levels of the Syk kinase using the commercially available AlphaLISA SureFire Ultra p-SYK (Tyr525/526) Assay Kit (PerkinElmer #ALSU-PSYK), based on the Perkin Elmer AlphaScreen/AlphaLISA technology.
Compounds are transferred to the test plate and tested in full dose response, 8 concentrations in quadruplicate data points. Compound serial dilutions were performed at Cybi-Felix instrument in 100% DMSO and the dose response curves were assembled in automated fashion in 384MPT at Hamilton STARIet instrument. All the stock solutions were prepared at 20 mM in 100% DMSO. For compounds testing, the starting concentration was 100 μM, dilution steps 1:6. A different concentration's range was adapted for compound's activity based on the preliminary results. Finally, a 384MPT reformatted for all compounds at 8 concentrations, quadruplicates, was used as “mother to child” process with a CyBi®-Well dispenser in which 1 μL of each compound was moved into a destination plate pre-filled with 65.6 μL of EMEM cell culture medium (BIOWHITTAKER_cat.BE12-125F), thus obtaining 3× concentrated compounds working solution. In columns 1-2 and 23-24 the control wells were added. In particular, dose response curves of a reference control agonist were included in column 1 and 24 as reference control agonist (Reference control agonists used include Human TREM2 polyclonal Antibody AF1828: R&D Systems; Human TREM2 monoclonal Antibody MAB1828: R&D Systems). The dose response curves were tested starting at 30 μM, dilution step 1:6. Both “source” compound plate and “destination” compound plate were barcoded and a relationship between the two plates was thus generated.
HEK293/DAP12+TREM2 cells were cultured in EMEM medium supplemented with IX Penicillin/Streptomycin (BIOWHITTAKER_cat.DE17-602E), ULTRAGLUTAMINE I 200 mM, 10% Fetal Bovine Serum plus antibiotics referred to as “HEK293 Culture Medium”. The day before the experiment, cells were detached by gentle wash with DPBS, followed by 5 min incubation at 37° C. with Trypsin solution. Cells were then diluted in HEK293 Culture Medium without antibiotics, counted and seeded into 384-well poly-D-Lysine coated microplates black/clear bottom (GREINER 781946) at a density of 10,000 cells/well in 25 μL/well by the use of a MATRIX WellMate dispenser. Plates were placed into a humidified cell culture incubator at 37° C. with 5% CO2 until the experimental day. 20-24 hours after seeding mature medium was removed and replaced with 10 μL/well of EMEM cell medium supplemented with 0.1% Pluronic F-68 non-ionic surfactant (Thermofisher, 24040032), referred to as “Assay Buffer”, using the CyBi®-Well instrument. Then 5 μL/well of Assay Buffer containing 3× concentrated test compounds or the reference control agonist (in 0.5% final DMSO concentration) were added to the cells with the CyBi®-Well instrument. Cell plates were incubated for 30 min into a humidified cell culture incubator at 37° C. with 5% CO2,then the medium was removed by manually discard. 20 μL/well of lysis buffer were dispensed using the CyBi®-Well instrument and plates were incubated for 10 min at room temperature on a plate shaker (350 rpm). Then, 10 μL/well of lysate were transferred to the Alpha plates. The CyBi®-Well instrument was used to dispense 5 μL/well of AlphaLISA Acceptor Bead Solution in IX Immunoassay buffer (Perkin Elmer ALOOOF). […]

T1 sequence (Q9NZC2 19-230): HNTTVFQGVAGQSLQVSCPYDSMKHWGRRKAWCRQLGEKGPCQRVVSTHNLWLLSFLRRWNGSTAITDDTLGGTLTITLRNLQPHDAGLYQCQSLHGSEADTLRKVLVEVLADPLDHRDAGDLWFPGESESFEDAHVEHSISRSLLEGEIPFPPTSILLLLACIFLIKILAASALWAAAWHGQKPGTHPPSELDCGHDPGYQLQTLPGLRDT
T1 sequence (O43914 22-113 partner): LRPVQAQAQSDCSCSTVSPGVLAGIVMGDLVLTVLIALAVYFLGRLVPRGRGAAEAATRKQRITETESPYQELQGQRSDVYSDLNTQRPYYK

Row | Emax [%] | EC50 [nM] | Compound
1 | 75 to 110 | < 1 | COc1cc([C@H]2CN(c3nc(-c4ccc(C#N)cc4F)c4nc(C(F)(F)F)n(C)c(=O)c4n3)C[C@@H](C)O2)ccn1 (single isomer, unassigned) [Example 9B]
2 | 75 to 110 | 1 to 10 | Cn1cc([C@H]2CN(c3cc4c(=O)n(C)c(C(F)(F)F)nc4c(-c4ccc(C#N)cc4F)n3)CC(F)(F)O2)cn1 (single isomer, unassigned) [Example 14A]
3 | 75 to 110 | 1 to 10 | Cn1cc([C@H]2CN(c3cc4c(=O)n(C)c(C(F)(F)F)nc4c(-c4ccc(C#N)cc4F)n3)CCO2)cn1 [Example 15, (S)-3-fluoro-4-(3-methyl-6-(2-(1-methyl-1H-pyrazol-4-yl)morpholino)-4-oxo-2-(trifluoromethyl)-3,4-dihydropyrido[3,4-d]pyrimidin-8-yl)benzonitrile]
4 | 75 to 110 | 1 to 10 | C[C@H]1CN(c2nc(-c3ccc(C#N)cc3F)c3nc(C(F)(F)F)n(C)c(=O)c3n2)C[C@@H](c2cnn(C)c2)O1 (single isomer, unassigned) [Example 6B]
5 | 75 to 110 | 1 to 10 | C[C@@H]1CN(c2nc(-c3ccc(C#N)cc3F)c3nc(C(F)(F)F)n(C)c(=O)c3n2)C[C@H](c2cnn(C)c2)O1 (single isomer, unassigned) [Example 6A]
6 | 75 to 110 | 1 to 10 | COc1ccc(-c2nc(N3CCO[C@@H](c4cnn(C)c4)C3)nc3c(=O)n(C)c(C(F)(F)F)nc23)c(F)c1 [Example 2, (S)-8-(2-fluoro-4-methoxyphenyl)-3-methyl-6-(2-(1-methyl-1H-pyrazol-4-yl)morpholino)-2-(trifluoromethyl)pyrimido[5,4-d]pyrimidin-4(3H)-one]
7 | < 75 | 1 to 10 | Cn1cc([C@H]2CN(c3nc(-c4ccc(C#N)cc4)c4nc(C(F)(F)F)n(C)c(=O)c4n3)CCO2)cn1 [Example 3, (S)-4-(7-methyl-2-(2-(1-methyl-1H-pyrazol-4-yl)morpholino)-8-oxo-6-(trifluoromethyl)-7,8-dihydropyrimido[5,4-d]pyrimidin-4-yl)benzonitrile]
8 | > 110 | < 1 | C[C@@H]1CN(c2nc(-c3ccc(C#N)cc3F)c3nc(C(F)(F)F)n(C)c(=O)c3n2)C[C@H](c2cnn(C3CC3)c2)O1 (single isomer, unassigned) [Example 5A]
9 | 75 to 110 | 10 to 100 | C[C@@H]1CN(c2nc(-c3ccc(F)cc3F)c3ncn(C)c(=O)c3n2)C[C@H](c2cnn(C3CC3)c2)O1
10 | 75 to 110 | < 1 | COc1ccc(-c2nc(N3C[C@@H](C)O[C@@H](c4cnn(C5CC5)c4)C3)nc3c(=O)n(C)c(C(F)(F)F)nc23)c(F)c1 (single isomer, unassigned) [Example 4]
11 | 75 to 110 | 1 to 10 | C[C@H]1CN(c2cc3c(=O)n(C)c(C(F)(F)F)nc3c(-c3ccc(C#N)cc3F)n2)C[C@@H](c2cnn(C3CC3)c2)O1 (single isomer, unassigned) [Example 13B]
12 | 75 to 110 | 10 to 100 | Cn1cc([C@@H]2CN(c3cc4c(=O)n(C)c(C(F)(F)F)nc4c(-c4ccc(C#N)cc4F)n3)CC(F)(F)O2)cn1 (single isomer, unassigned) [Example 14B]
13 | 75 to 110 | 10 to 100 | COc1cc([C@@H]2CN(c3nc(-c4ccc(F)cc4F)c4nc(C(F)(F)F)n(C)c(=O)c4n3)CCO2)ccn1 (single isomer, unassigned) [Example 12B]
14 | 75 to 110 | < 1 | C[C@@H]1CN(c2cc3c(=O)n(C)c(C(F)(F)F)nc3c(-c3ccc(C#N)cc3F)n2)C[C@H](c2cnn(C3CC3)c2)O1 (single isomer, unassigned) [Example 13A]
15 | 75 to 110 | < 1 | COc1cc([C@H]2CN(c3nc(-c4ccc(F)cc4F)c4nc(C(F)(F)F)n(C)c(=O)c4n3)CCO2)ccn1 (single isomer, unassigned) [Example 12A]
16 | 75 to 110 | < 1 | COc1cc([C@@H]2CN(c3nc(-c4ccc(C#N)cc4F)c4nc(C(F)(F)F)n(C)c(=O)c4n3)C[C@H](C)O2)ccn1 (single isomer, unassigned) [Example 9A]
17 | 75 to 110 | < 1 | COc1cc([C@H]2CN(c3nc(-c4ccc(C#N)cc4F)c4nc(C(F)(F)F)n(C)c(=O)c4n3)CCO2)ccn1 (single isomer, unassigned) [Example 8B]
18 | 75 to 110 | 1 to 10 | C[C@H]1CN(c2nc(-c3ccc(C#N)cc3)c3nc(C(F)(F)F)n(C)c(=O)c3n2)C[C@@H](c2cnn(C3CC3)c2)O1 (single isomer, unassigned) [Example 11B]
19 | > 110 | 1 to 10 | C[C@H]1CN(c2nc(-c3ccc(C#N)cc3F)c3nc(C(F)(F)F)n(C)c(=O)c3n2)C[C@@H](c2cnn(C3CC3)c2)O1 (single isomer, unassigned) [Example 5B]
20 | 75 to 110 | 1 to 10 | C[C@H]1CN(c2nc(-c3ccc(C#N)cc3)c3nc(C(F)(F)F)n(C)c(=O)c3n2)C[C@@H](c2cnn(C)c2)O1 (single isomer, unassigned) [Example 10B]
21 | 75 to 110 | 10 to 100 | COc1cc([C@@H]2CN(c3nc(-c4ccc(C#N)cc4F)c4nc(C(F)(F)F)n(C)c(=O)c4n3)CCO2)ccn1 (single isomer, unassigned) [Example 8A]
22 | 75 to 110 | < 1 | C[C@@H]1CN(c2nc(-c3ccc(C#N)cc3)c3nc(C(F)(F)F)n(C)c(=O)c3n2)C[C@H](c2cnn(C)c2)O1 (single isomer, unassigned) [Example 10A]
23 | 75 to 110 | 1 to 10 | Cc1nc2c(-c3ccc(F)cc3F)nc(N3C[C@@H](C)O[C@@H](c4cnn(C5CC5)c4)C3)nc2c(=O)n1C
24 | 75 to 110 | < 1 | C[C@@H]1CN(c2nc(-c3ccc(C#N)cc3)c3nc(C(F)(F)F)n(C)c(=O)c3n2)C[C@H](c2cnn(C3CC3)c2)O1 (single isomer, unassigned) [Example 11A]
25 | > 110 | < 1 | Cn1cc([C@H]2CN(c3nc(-c4ccc(C#N)cc4F)c4nc(C(F)(F)F)n(C)c(=O)c4n3)CC(F)(F)O2)cn1 (single isomer, unassigned) [Example 7A]
26 | 75 to 110 | < 1 | Cn1cc([C@H]2CN(c3nc(-c4ccc(C#N)cc4F)c4nc(C(F)(F)F)n(C)c(=O)c4n3)CCO2)cn1 [Example 1, (S)-3-fluoro-4-(7-methyl-2-(2-(1-methyl-1H-pyrazol-4-yl)morpholino)-8-oxo-6-(trifluoromethyl)-7,8-dihydropyrimido[5,4-d]pyrimidin-4-yl)benzonitrile]
27 | 75 to 110 | 1 to 10 | Cn1cc([C@@H]2CN(c3nc(-c4ccc(C#N)cc4F)c4nc(C(F)(F)F)n(C)c(=O)c4n3)CC(F)(F)O2)cn1 (single isomer, unassigned) [Example 7B]
